Experimental data as given in patent publication US11078189B2, “Pharmaceutical compounds” (REVIRAL LIMITED, priority 2017, dated 2021).

Assays:
[1] = biological target: T1, RSV fusion (pCDNA3.1_A2_F in HEK 293T cells) (Human respiratory syncytial virus A, UniProt P03420); test: RSV fusion assay; format: cell-based
T1 construct: expressed in transfected cells; host or cells: HEK 293T (ECACC 12022001)
Protocol: HEK 293T ((ECACC 12022001) cells were cultured in T75 culture flasks in Dulbecco's medium (DMEM) containing 10% Foetal Bovine serum (FBS), 50 units per mL Penicillin and 50 μg/mL Streptomycin and warmed to 37° C. prior to use. The cells were passaged by first washing briefly with 5 mL Phosphate buffered saline (PBS), followed by addition of 2 mL of Trypsin Ethylenediaminetetraacetic acid (EDTA) to detach the cells. Once cells had detached from the flask, 8 mL media was then added to and the cells dispersed via pipetting against the bottom of the flask.
The cells were counted and diluted to 3×10^5 cells/ml in fresh media. Two T75 flasks were each seeded with 15.6 mL diluted cells, cells were also subcultured at a ratio of between 1:2 and 1:10, to continue the stock. The flasks were then incubated for 24 h at 37° C. and 5% CO2.
The plasmid DNA (for pFR-Luc and pcDNA3. 1_Gal4/NFKB) to be transfected into the HEK 293T cells was first prepared in serum free media (Opti-MEM, Invitrogen), containing the transfection reagent FuGENE® 6 (Promega). Serum free media was placed in a 1.5 mL eppendorf tube then the FuGENE 6 was added into the media. The tube was vortexed for 1 s before being incubated at RT for 5 min. 7.79 ng of both pFR_luc and pCDNA3.1_A2_F plasmid DNA were added to tube 1 and 7.79 ng of pCDNA3.1_GAL4-NF-κB plasmid to tube 2. The tubes were vortexed for 1 second and then incubated at room temperature for 15 min. Each transfection mixture was then added into the media of one of the T75 flasks of 293T cells. Cells were cultured for 24h at 37° C., 5% CO2 in a humidified incubator.
Compounds were diluted (in a polypropylene round-bottomed 96 well plate) 1:3 in a twelve point dilution curve to give top [final] of either 25 μM, 3 μM, 1 μM or 500 nM. A control compound was included in every assay at a top concentration of 3 μM. Transfected cells were counted and diluted to 4×10^5 cells/mL in fresh media. 50 μL of transfection population 1 were added to all wells of the 96 well flat bottom white opaque assay plates. 100 μL diluted compound (2 rows per compound), control compound (one row) and controls (DMSO (0% inhibition, four wells), 3 μM positive control (100% inhibition, four wells) and media (transfection population 1 only, four wells) were added to the appropriate wells. 50 μL of the diluted (4×10^5 cells/mL) population 2 cells when then added to all wells, except the four wells of transfection population 1 only where an extra 50 μL of this cells population was added.
The plates were then incubated for 24 h at 37° C. and 5% CO2. After this time, 100 μL was removed from all wells and 60 μL of ONE-Glo™ (Promega) reagent, pre-equilibrated to room temperature, was added. Plates were then incubated for 3 min at room temperature before luminescence was read, using the ONE-Glo protocol, on the GloMax Explorer System (Promega) multimode reader. Analysis was carried out in Dotmatics software. All raw data were background subtracted (subtraction of mean 3 μM positive control value), before IC50 calculation.

[2] = system: RSV A2 VR-1540; test: RSV plaque reduction assay; format: cell-based; conditions: human respiratory syncytial virus; Strain A2; n = 1; HEp-2 cells
Protocol: HEp-2 cells (ATCC, CCL23) were passaged in flasks and seeded in 96-well plates in DMEM containing antibiotics and supplemented with 10% FBS. During inoculation and subsequent incubation, cells were cultured in DMEM containing 3% FBS. 100 plaque forming unit (PFU)/well of RSV (RSV A2 VR-1540) was mixed with ten serial dilutions of compound. Subsequently, 100 μL of the virus/compound mixtures was added to confluent HEp-2 cell monolayers. The cells and virus/compound mixtures were incubated at 35° C. in a humidified 5% CO2 incubator for 1 day.
Cells were washed twice with PBS before adding 50% v/v EtOH/MeOH, and then stored at −20° C. On the day of the staining, fixative was first removed from the plates. Plates were washed 3× with PBS. A pre-titrated amount of the primary antibody was added in 60 μL PBS/2% milk powder, and plates incubated for 1 h at […]. The plates were washed 3× with PBS/0.05% Tween20 before addition of goat anti-mouse horse radish peroxidase in 60 μL PBS/2% milk powder, and incubated for 1 h at rt. Following three wash steps with PBS/0.05% Tween20, 60 μL ready-to-use TrueBlue was added and plates were incubated at rt for 10-15 min before adding MilliQ water. Plates were washed once with water, incubated for 30-60 min and after removal of water, air-dried in the dark.
Plates were scanned and analyzed using the Immunospot S6 UV analyzer, which is equipped with BioSpot analysis software for counting immunostained plaques (virospots). Plaque counts were used to calculate % infection relative to the mean of the spot count (SC) in the virus control wells for RSV. IC50/IC90 values were calculated as 50% or 90% reduction in signal, respectively, by interpolation of inhibition curves fitted with a 4-parameter nonlinear regression with a variable slope in GraphPad 5.0 (Prism).

[3] = system: MDR1; test: in vitro; format: in vitro ADME; conditions: dog, MDCK-MDR1
Protocol: MDR1-MDCK cells obtained from the NIH (Rockville, Md., USA) are used between passage numbers 6-30. Cells are seeded onto Millipore Multiscreen Transwell plates at 3.4×10^5 cells/cm^2. The cells are cultured in DMEM and media is changed on day 3. On day 4 the permeability study is performed. Cell culture and assay incubations are carried out at 37° C. in an atmosphere of 5% CO2 with a relative humidity of 95%. On the day of the assay, the monolayers are prepared by rinsing both basolateral and apical surfaces twice with Hanks Balanced Salt Solution (HBSS) at the desired pH warmed to 37° C. Cells are then incubated with HBSS at the desired pH in both apical and basolateral compartments for 40 min to stabilise physiological parameters.
The dosing solutions are prepared by diluting test compound with assay buffer to give a final test compound concentration of 10 μM (final DMSO concentration of 1% v/v). The fluorescent integrity marker lucifer yellow is also included in the dosing solution. Analytical standards are prepared from test compound DMSO dilutions and transferred to buffer, maintaining a 1% v/v DMSO concentration.
For assessment of A-B permeability, HBSS is removed from the apical compartment and replaced with test compound dosing solution. The apical compartment insert is then placed into a companion plate containing fresh buffer (containing 1% v/v DMSO). For assessment of B-A permeability, FIBSS is removed from the companion plate and replaced with test compound dosing solution. Fresh buffer (containing 1% v/v DMSO) is added to the apical compartment insert, which is then placed into the companion plate. At 60 min the apical compartment inserts and the companion plates are separated and apical and basolateral samples diluted for analysis. Test compound permeability is assessed in duplicate. Compounds of known permeability characteristics are run as controls on each assay plate.
Test and control compounds are quantified by LC-MSMIS cassette analysis using an 8-point calibration with appropriate dilution of the samples. The starting concentration (C0) is determined from the dosing solution and the experimental recovery calculated from C0 and both apical and basolateral compartment concentrations. The integrity of the monolayer throughout the experiment is checked by monitoring lucifer yellow permeation using fluorimetric analysis. Lucifer yellow permeation is high if monolayers have been damaged.

T1 sequence (P03420 26-109): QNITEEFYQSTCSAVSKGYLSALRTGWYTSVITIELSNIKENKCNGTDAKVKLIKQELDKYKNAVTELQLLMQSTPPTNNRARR
T1 sequence (P03420 137-574): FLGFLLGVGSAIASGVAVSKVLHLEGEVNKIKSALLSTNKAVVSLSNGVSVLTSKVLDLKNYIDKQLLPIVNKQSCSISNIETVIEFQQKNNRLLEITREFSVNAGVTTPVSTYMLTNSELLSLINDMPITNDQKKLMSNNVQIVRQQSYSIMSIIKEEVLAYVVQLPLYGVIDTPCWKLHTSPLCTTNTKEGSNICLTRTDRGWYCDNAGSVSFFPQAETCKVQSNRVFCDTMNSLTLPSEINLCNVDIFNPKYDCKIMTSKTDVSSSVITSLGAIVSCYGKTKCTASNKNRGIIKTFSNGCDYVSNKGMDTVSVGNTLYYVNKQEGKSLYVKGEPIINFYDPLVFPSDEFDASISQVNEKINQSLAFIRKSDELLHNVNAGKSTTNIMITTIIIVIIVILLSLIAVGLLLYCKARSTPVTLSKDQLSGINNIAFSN

| SMILES | IC50 [1] [nM] | IC50 [2] [nM] | IC90 [2] [nM] | Papp A→B at 60 min, 10 μM [3] [×10⁻⁶ cm/s] | Papp B→A at 60 min, 10 μM [3] [×10⁻⁶ cm/s] |
| --- | --- | --- | --- | --- | --- |
| CS(=O)(=O)N1CCN(CCCn2c(CN3C(=O)C4(CC4)c4ccc(F)cc43)nc3cc(Cl)ccc32)CC1 [Compound 1, 1′-({5-Chloro-1-[3-(4-methanesulfonylpiperazin-1-yl)propyl]-1H-1,3-benzodiazol-2-yl}methyl)-6′-fluoro-1,2′-dihydrospiro[cyclopropane-1,3′-indole]-2′-one] | 19 | 5.9 | 50 | – | – |
| O=C1N(Cc2nc3cc(Cl)ccc3n2CCCN2CCOCC2)c2cc(F)ccc2C12CC2 [Compound 18, 1′-({5-Chloro-1-[3-(morpholin-4-yl)propyl]-1H-1,3-benzodiazol-2-yl}methyl)-6′-fluoro-1′,2′-dihydrospiro[cyclopropane-1,3′-indole]-2′-one] | 70 | 7.6 | 60 | – | – |
| CS(=O)(=O)C1CCN(CCCn2c(CN3C(=O)C4(CC4)c4ccc(F)cc43)nc3cc(Cl)ccc32)C1 (stereo not shown) [Compound 14, 1′-({5-Chloro-1-[3-(3-methanesulfonylpyrrolidin-1-yl)propyl]-1H-1,3-benzodiazol-2-yl}methyl)-6′-fluoro-1′,2′-dihydrospiro[cyclopropane-1,3′-indole]-2′-one] | 18 | 3.5 | 34 | 4.8 | 68 |
| CCS(=O)(=O)CCNCCCn1c(CN2C(=O)C3(CC3)c3ccc(F)cc32)nc2cc(Cl)ccc21 [Compound 11, 1′-{[5-Chloro-1-(3-{[2-(ethanesulfonyl)ethyl]amino}propyl)-1H-1,3-benzodiazol-2-yl]methyl}-6′-fluoro-1′,2′-dihydrospiro[cyclopropane-1,3′-indole]-2′-one] | 24 | 5 | 41 | – | – |
| CS(=O)(=O)CCNCCCn1c(CN2C(=O)C3(CC3)c3ccc(F)cc32)nc2cc(Cl)ccc21 [Compound 10, 1′-[(5-Chloro-1-{3-[(2-methanesulfonylethyl)amino]propyl}-1H-1,3-benzodiazol-2-yl)methyl]-6′-fluoro-1′,2′-dihydrospiro[cyclopropane-1,3′-indole]-2′-one] | 12 | 2.5 | 31 | – | – |
| O=C1N(Cc2nc3cc(Cl)ccc3n2CCCN2CCS(=O)(=O)CC2)c2cc(F)ccc2C12CC2 [Compound 28, 4-{3-[5-Chloro-2-({6′-fluoro-2′-oxo-1′,2′-dihydrospiro[cyclopropane-1,3′-indole]-1′-yl}methyl)-1H-1,3-benzodiazol-1-yl]propyl}-1λ6-thiomorpholine-1,1-dione] | 115 | 9.5 | 48 | – | – |
| CC(C)[C@H](NCCCn1c(CN2C(=O)C3(CC3)c3ccc(F)cc32)nc2cc(Cl)ccc21)C(N)=O [Compound 12, (2S)-2-({3-[5-chloro-2-({6′-fluoro-2′-oxo-1′,2′-dihydrospiro[cyclopropane-1,3′-indole]-1′-yl}methyl)-1H-1,3-benzodiazol-1-yl]propyl}amino)-3-methylbutanamide] | 71 | 29 | 200 | – | – |
| CS(=O)(=O)N1CCN(CCn2c(CN3C(=O)C4(CC4)c4ccc(F)cc43)nc3cc(Cl)ccc32)CC1 [Compound 9, 1′-({5-chloro-1-[2-(4-methanesulfonylpiperazin-1-yl)ethyl]-1H-1,3-benzodiazol-2-yl}methyl)-6′-fluoro-1′,2′-dihydrospiro[cyclopropan-1,3′-indole]-2′-one] | 15 | 4.2 | 28 | – | – |
| CS(=O)(=O)C1CCN(CCCn2c(CN3C(=O)C4(CC4)c4ccc(F)cc43)nc3cc(Cl)ccc32)CC1 [Compound 20, 1′-({5-Chloro-1-[3-(4-methanesulfonylpiperidin-1-yl)propyl]-1H-1,3-benzodiazol-2-yl}methyl)-6′-fluoro-1′,2′-dihydrospiro[cyclopropane-1,3′-indole]-2′-one] | 12 | 5.9 | 7.5 | 1.6 | 61.3 |
| CS(=O)(=O)C1CN(CCCn2c(CN3C(=O)C4(CC4)c4ccc(F)cc43)nc3cc(Cl)ccc32)C1 [Compound 13, 1′-({5-Chloro-1-[3-(3-methanesulfonylazetidin-1-yl)propyl]-1H-1,3-benzodiazol-2-yl}methyl)-6′-fluoro-1′,2′-dihydrospiro[cyclopropane-1,3′-indole]-2′-one] | 10 | 4.5 | 41 | – | – |
